Values of other authors in publication PMC11070244 (Current Research in Structural Biology, 2024).

Legend:
AChE = AChE (Homo sapiens, UniProt P22303); settings: in vitro experiments; ref Durmaz et al. (2023)
BChE [1] = target: T1, BChE (Homo sapiens, UniProt P06276); settings: in vitro experiments; ref Durmaz et al. (2023)
BChE [2] = target: T1, BChE; settings: ref Khan et al., 2009

T1 sequence (P06276 29-602, species assumed): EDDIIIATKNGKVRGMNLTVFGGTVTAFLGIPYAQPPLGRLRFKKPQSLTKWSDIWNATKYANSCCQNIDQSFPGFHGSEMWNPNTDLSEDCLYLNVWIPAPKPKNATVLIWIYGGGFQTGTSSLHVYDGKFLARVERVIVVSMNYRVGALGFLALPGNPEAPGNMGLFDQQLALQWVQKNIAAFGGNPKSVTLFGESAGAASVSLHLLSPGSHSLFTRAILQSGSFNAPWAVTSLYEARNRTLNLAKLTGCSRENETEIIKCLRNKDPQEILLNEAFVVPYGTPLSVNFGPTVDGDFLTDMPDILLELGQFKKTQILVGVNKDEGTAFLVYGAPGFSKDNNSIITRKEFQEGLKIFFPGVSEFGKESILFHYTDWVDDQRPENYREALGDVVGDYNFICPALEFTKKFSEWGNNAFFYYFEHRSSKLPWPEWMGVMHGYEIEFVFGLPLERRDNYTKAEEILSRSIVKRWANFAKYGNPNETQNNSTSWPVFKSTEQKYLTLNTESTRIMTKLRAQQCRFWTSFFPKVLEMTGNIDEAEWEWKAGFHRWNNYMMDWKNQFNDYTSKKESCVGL
Chain of AChE (P22303 32-614): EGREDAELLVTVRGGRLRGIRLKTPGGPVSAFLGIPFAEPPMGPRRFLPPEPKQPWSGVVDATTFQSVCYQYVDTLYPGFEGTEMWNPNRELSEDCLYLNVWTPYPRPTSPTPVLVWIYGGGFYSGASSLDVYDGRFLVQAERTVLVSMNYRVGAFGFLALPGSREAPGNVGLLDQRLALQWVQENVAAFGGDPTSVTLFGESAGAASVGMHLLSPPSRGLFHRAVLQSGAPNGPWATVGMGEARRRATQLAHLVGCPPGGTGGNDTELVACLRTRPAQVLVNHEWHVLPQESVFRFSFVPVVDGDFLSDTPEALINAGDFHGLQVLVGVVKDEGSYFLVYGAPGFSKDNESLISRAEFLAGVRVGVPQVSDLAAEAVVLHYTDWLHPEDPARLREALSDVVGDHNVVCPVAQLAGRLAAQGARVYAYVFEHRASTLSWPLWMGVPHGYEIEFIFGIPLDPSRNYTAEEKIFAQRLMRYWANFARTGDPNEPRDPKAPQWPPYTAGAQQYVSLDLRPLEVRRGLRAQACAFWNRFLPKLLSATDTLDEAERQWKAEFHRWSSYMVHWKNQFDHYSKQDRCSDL

SMILES | Inhibition of AChE activity (AChE) | Inhibition of BChE activity (BChE [1]) | Docking score with BChE compared to donepezil (BChE [2])
O=C(O)[C@H]1O[C@@H](Oc2cc3oc(-c4ccccc4)cc(=O)c3c(O)c2O)[C@H](O)[C@@H](O)[C@@H]1O [baicalin] | significantly inhibited | significantly inhibited | –
O=c1c(O)c(-c2ccc(O)c(O)c2)oc2cc(O)cc(O)c12 [quercetin] | – | – | stronger docking score
